Measurements reported in patent US10603319B2, “Pyrimidine derivatives and their use in treating or preventing a respiratory syncytial virus infection” (REVIRAL LIMITED, priority 2016, dated 2020).
Where two headings read alike, the source gives them in different places.

Assays:
Assay type in all cases: cell-based
[1] = molecular target: T1, RSV A2_F (Human respiratory syncytial virus A, UniProt P03420); experiment: RSV fusion assay (luciferase reporter, HEK 293T/17 cells transfected with A2_F); conditions: Fusion activity IC50 μM, HEK 293T/17 cells, 24 hr
T1 construct: expressed in transfected cells; host or cells: HEK 293T/17
Method: HEK 293T/17 cells were cultured in T75 culture flasks in Dulbecco's medium (DMEM) containing 10% FBS and 1× Penicillin-Streptomycin (Pen/Strep) and warmed to 37° C. prior to use. The cells were passaged by first washing briefly with 3 ml phosphate buffered saline (PBS) followed by a 4 min incubation with […] at 37° C. 7 ml media was then added to the flask and the cells dispersed via pipetting (×3) against the bottom of the flask. Two further T75 flasks were each seeded with 2×10^6 cells in 15 ml fresh media.
Cells were seeded on the T75 plates at the same density as on the 6-well plates the area of a T75 flask and one 1.75 cm radius well from a 6-well plate were compared. 7.79×2 ml of 3×10^5 cells ml^−1 was used to seed a single T75 flask.
HEK cells were removed from a T75 flask as described above. The cells were counted and diluted to 3×10^5 cells/ml in fresh media. Two T75 flasks were each seeded with 15.58 ml diluted cells.
The plasmid DNA (for pFR-Luc and pcDNA3.1_Gal4/NFκB) to be transfected into the HEK cells was first prepared in serum free media (DMEM+Pen/Strep) containing the transfection reagent Fugene 6 (Promega). Transfections were set up as follows (Luc=pFR_Luc, Gal4=pcDNA3.1+_Gal4/NFκB, A2_F=pcDNA3.1+_A2_F)
Serum free media was placed in a 1.5 ml eppendorf tube then the fugene 6 was added into the media. The tube was vortexed for 1 s before being incubated at RT for 5 min. The plasmid DNA was then added to the tube, vortexed for 1 s, then incubated at RT for 15 min
The transfection reagents were then added to the appropriate T75 flask by tipping the flask on end and adding the reagents directly to the media already in the flask. The flask was then tipped on its back so the media could be mixed thoroughly whilst not disturbing the cells before placing the flask the right way up and incubating overnight at 37° C. and 5% CO2.
Compounds were diluted (in a polypropylene round-bottomed 96 well plate) 1:3 in a twelve point dilution curve to give top [final] of either 3.3 μM, 1 μM, 500 nM 200 nM or 100 nM. The Control compound was always run at a concentration of 100 nM.
The cells were then counted and diluted to 4×10^5 cells/ml in fresh media. 50 μl of transfection population 1 cells were added to all wells of the assay plates. 100 μl diluted compound (2 rows per compound), standard curve (one row) and controls (100 nM RV (100% inhibition, four wells), DMSO (0% inhibition, eight wells)) were added to the appropriate wells. 50 μl of the diluted (4×10^5 cells/ml) transfection population 2 cells when then added to all wells.
The plates were then incubated for 24 hr at 37° C. and 5% CO2
Buffers were prepared for the luciferase assay (20 mM tricine, 10 mM MgSO4, 1 mM EDTA, 10 mM DTT) and lysis (25 mM tris-phosphate, 8 mM MgCl2, 1 mM DTT, 1% Triton X-100, 15% glycerol) and stored at −20° C.
Luminescence was measured as described:
Media was discarded into Virkon and the plates washed with 100 ul PBS per well. 20 ul/well of lysis buffer was added to each well and incubated shaking for 5 min at RT. Luciferin was added to LAAB at a dilution of 1:50 to give a working luciferin buffer. 100 μl working luciferin buffer was added to each well and luminescence was measured immediately. […]

[2] = system: RSV A2 VR-1540; experiment: Plaque Reduction Assay 2 (HEp-2 cells, virospot count); conditions: human respiratory syncytial virus, 24 h; RSV A2, HEp-2 cells, 1 day
Excerpt: Plaque Reduction Assay 2:
This RSV plaque reduction assay is an infectivity assay which allows quantification of the number of infectious units in a distinct foci of RSV infection. This is indicated by zones of viral antigen detected by specific antibody staining within a monolayer of otherwise healthy tissue culture cells. As each plaque originates from a single infectious virus particle an accurate calculation of the anti-viral effect can be obtained by counting plaques in the presence and absence of an anti-viral compound. HEp-2 cells (ATCC, CCL23) were passaged in flasks and seeded in 96-well plates in DMEM containing antibiotics and supplemented with 10% FBS. During inoculation and subsequent incubation, cells were cultured in DMEM containing 3% FBS. 100 plaque forming unit (PFU)/well of RSV (RSV A2 VR-1540) was mixed with ten serial dilutions of compound. Subsequently, 100 μL of the virus/compound mixtures was added to confluent HEp-2 cell monolayers. The cells and virus/compound mixtures were incubated at 35° C. in a humidified 5% CO2 incubator for 1 day.
Cells were washed twice with PBS before adding 50% v/v EtOH/MeOH, and then stored at −20° C. On the day of the staining, fixative was first removed from the plates. Plates were washed 3× with PBS. A pre-titrated amount of the primary antibody was added in 60 μL PBS/2% milk powder, and plates incubated for 1 h at rt. The plates were washed 3× with PBS/0.05% Tween20 before addition of goat anti-mouse horse radish peroxidase in 60 μL PBS/2% milk powder, and incubated for 1 h at rt. Following three wash steps with PBS/0.05% Tween20, 60 μL ready-to-use TrueBlue was added and plates were incubated at rt for 10-15 min before adding MilliQ water. Plates were washed once with water, incubated for 30-60 min and after removal of water, air-dried in the dark.
Plates were scanned and analyzed using the Immunospot S6 UV analyzer, which is equipped with BioSpot analysis software for counting immunostained plaques (virospots). Plaque counts were used to calculate % infection relative to the mean of the spot count (SC) in the virus control wells for RSV. IC50/IC90 values were calculated as 50% or 90% reduction in signal, respectively, by interpolation of inhibition curves fitted with a 4-parameter nonlinear regression with a variable slope in GraphPad 5.0 (Prism).

[3] = system: RSV A2; experiment: Plaque Reduction Assay 1 (Vero cells, immunostaining); conditions: two replicate values, read-out: RSV Plaque Reduction assays A2 (PRNT1) (n = 2) IC50
Method: Plaque Reduction Assay 1: Vero cells were seeded in 96-well plates in a volume of 100 μL of Optimem supplemented with 3% FCS at a concentration of 4×10^4 cells per well. After an overnight incubation at 37° C. in a humidified 5% CO2 atmosphere, the monolayer of cells should be approximately 90% confluent. Antiviral compounds were titrated in pre-warmed Serum Free (SF) Optimem in a U-bottom 96 well plate. For compounds in a DMSO solution, titration in 100% DMSO was performed first and each concentration added individually to a 2× final concentration at 4% DMSO in SF media before mixing with virus (2% final DMSO with virus). Media was then removed from cells and replaced with PBS (100 μl/well). RSV stock was thawed and diluted in SF Optimem media to 4000 PFU/mLl. An equal volume of virus was added to compounds on the titration plate. PBS was removed from cells which were then inoculated with the virus/compound solution (50 μL/well). Cells were incubated for 2 h in a 37° C.+5% CO2 humidified incubator to allow infection. Inoculum was removed and media (Optimem+1% FCS) added to cells (100 μl/well). Cells were subsequently incubated for 48 h at 37° C.+5% CO2 in a humidified incubator. Immunostaining Procedure: Media was removed from cells and the monolayer washed with PBS. Cells were fixed with ice cold 80% Acetone in PBS (100 μl/well) for 20 mins at −20° C. Fixative was removed and cells are dried for 30 mins with plates inverted. Blocking solution (5% skim milk powder in PBS-T) was added to cells (150 μL/well) and plates were incubated for 30 mins at room temperature. Blocking solution was removed and plates washed once with PBS-T. Primary antibody in blocking solution was added to plates (50 μl/well) and incubated for 1 h at 37° C. Plates were then washed 3 times with PBS-T. Secondary antibody in blocking solution was added to plates ([…]) and incubated for 1 h at 37° C. in the dark. Plates were washed as above and then dried for 10 mins. Plates were scanned on the Odyssey Imager (Li-Cor Biosciences) at a resolution of […], medium quality and level 5 intensity in the […]. Data Analysis: Images obtained were saved and plaque numbers counted with the aid of computer imaging software. EC50 values for compounds were derived from dose response curves [three variable log(inhibitor) vs response] obtained using Graphpad Prism software.

T1 sequence (P03420 137-574): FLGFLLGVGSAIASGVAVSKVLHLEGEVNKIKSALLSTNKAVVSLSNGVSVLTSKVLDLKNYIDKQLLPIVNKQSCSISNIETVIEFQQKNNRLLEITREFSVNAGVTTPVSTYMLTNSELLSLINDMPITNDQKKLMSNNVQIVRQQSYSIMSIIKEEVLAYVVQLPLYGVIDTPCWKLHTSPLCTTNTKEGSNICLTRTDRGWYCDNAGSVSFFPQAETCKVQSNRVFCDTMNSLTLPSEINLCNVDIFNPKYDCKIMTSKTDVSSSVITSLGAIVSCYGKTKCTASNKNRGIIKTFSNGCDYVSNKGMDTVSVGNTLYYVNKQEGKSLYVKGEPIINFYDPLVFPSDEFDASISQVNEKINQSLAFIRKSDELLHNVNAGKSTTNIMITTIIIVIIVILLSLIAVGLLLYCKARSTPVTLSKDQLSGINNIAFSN
T1 sequence (P03420 26-109): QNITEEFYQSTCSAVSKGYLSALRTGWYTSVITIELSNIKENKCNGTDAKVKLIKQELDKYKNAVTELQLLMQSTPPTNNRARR

Structure (SMILES) | IC50 [1] [µM] | IC50 [2] [nM] | IC50 ([3]; human respiratory syncytial virus, Vero) [nM] | IC50 [3] [nM]
NC1CCN(c2ncc(CN3C(=O)C4(CC4)c4ccc(F)cc43)c(N3CCS(=O)(=O)CC3)n2)C1 (stereo not drawn) [Compound 13, 1′-((2-(3-Aminopyrrolidin-1-yl)-4-(1,1-dioxidothiomorpholino)pyrimidin-5-yl)methyl)-6′-fluorospiro[cyclopropane-1,3′-indolin]-2′-one] | 5.04 | 424 | – | –
NC1CCN(c2ncc(CN3C(=O)C4(CC4)c4ccc(F)cc43)c(NC3CCOCC3)n2)C1 (stereo not drawn) [Compound 10, 1′-((2-(3-Aminopyrrolidin-1-yl)-4-((tetrahydro-2H-pyran-4-yl)amino)pyrimidin-5-yl)methyl)-6′-fluorospiro[cyclopropane-1,3′-indolin]-2′-one] | 0.184 | 33 | – | –
CCNc1nc(N2CCC(N)C2)ncc1CN1C(=O)C2(CC2)c2ccc(F)cc21 (stereo not drawn) [Compound 29, 1′-{[2-(3-Aminopyrrolidin-1-yl)-4-(ethylamino)pyrimidin-5-yl]methyl}-6′-fluoro-1′,2′-dihydrospiro[cyclopropane-1,3′-indole]-2′-one] | 1.17 | 740 | – | –
NCCNc1ncc(CN2C(=O)C3(CC3)c3ccc(F)cc32)c(NCCCCO)n1 [Compound 25, 1′-({2-[(2-Aminoethyl)amino]-4-[(4-hydroxybutyl)amino]pyrimidin-5-yl}methyl)-6′-fluoro-1′,2′-dihydrospiro[cyclopropane-1,3′-indole]-2′-one] | 0.212 | 49 | – | –
CC(C)CCNc1nc(N2CCC(N)C2)ncc1CN1C(=O)C2(CC2)c2ccc(F)cc21 (stereo not drawn) [Compound 1, 1′-((2-(3-Aminopyrrolidin-1-yl)-4-(isopentylamino)pyrimidin-5-yl)methyl)-6′-fluorospiro[cyclopropane-1,3′-indolin]-2′-one] | 0.708 | – | 619 | 316
NC1CCN(c2ncc(CN3C(=O)C4(CC4)c4ccc(F)cc43)c(NCCCO)n2)C1 (stereo not drawn) [Compound 27, 1′-{[2-(3-Aminopyrrolidin-1-yl)-4-[(3-hydroxypropyl)amino]pyrimidin-5-yl]methyl}-6′-fluoro-1′,2′-dihydrospiro[cyclopropane-1,3′-indole]-2′-one] | 1.09 | 34 | – | –
CC(C)CCNc1nc(N2CCCC2)ncc1CN1C(=O)C2(CC2)c2ccc(F)cc21 [Compound 7, 6′-Fluoro-1′-((4-(isopentylamino)-2-(pyrrolidin-1-yl)pyrimidin-5-yl)methyl)spiro[cyclopropane-1,3′-indolin]-2′-one] | 1.99 | – | – | –
CCCNc1nc(N2CCC(N)C2)ncc1CN1C(=O)C2(CC2)c2ccc(F)cc21 (stereo not drawn) [Compound 28, 1′-{[2-(3-Aminopyrrolidin-1-yl)-4-(propylamino)pyrimidin-5-yl]methyl}-6′-fluoro-1′,2′-dihydrospiro[cyclopropane-1,3′-indole]-2′-one] | 1.23 | 63 | – | –
NC1CCN(c2ncc(CN3C(=O)C4(CCC4)c4ccc(F)cc43)c(N[C@H]3CC[C@H](O)CC3)n2)C1 (stereo partly drawn) [Compound 20, 1′-{[2-(3-Aminopyrrolidin-1-yl)-4-[(4-hydroxycyclohexyl)amino]pyrimidin-5-yl]methyl}-6′-fluoro-1′,2′-dihydrospiro[cyclobutane-1,3′-indole]-2′-one] | 1.95 | 116 | – | –
NC1CCN(c2ncc(CN3C(=O)C4(CC4)c4ccc(F)cc43)c(NCCCCCO)n2)C1 (stereo not drawn) [Compound 19, 1′-{[2-(3-Aminopyrrolidin-1-yl)-4-[(5-hydroxypentyl)amino]pyrimidin-5-yl]methyl}-6′-fluoro-1′,2′-dihydrospiro[cyclopropane-1,3′-indole]-2′-one] | 0.362 | – | – | –
CS(=O)(=O)CCNc1nc(N2CCC(N)C2)ncc1CN1C(=O)C2(CC2)c2ccc(F)cc21 (stereo not drawn) [Compound 18, 1′-{[2-(3-Aminopyrrolidin-1-yl)-4-[(2-methanesulfonylethyl)amino]pyrimidin-5-yl]methyl}-6′-fluoro-1′,2′-dihydrospiro[cyclopropane-1,3′-indole]-2′-one] | 0.885 | – | – | –
NC1CCN(c2nc(NCCCCO)ncc2CN2C(=O)C3(CC3)c3ccc(F)cc32)C1 (stereo not drawn) [Compound 12, 1′-((4-(3-Aminopyrrolidin-1-yl)-2-((4-hydroxybutyl)amino)pyrimidin-5-yl)methyl)-6′-fluorospiro[cyclopropane-1,3′-indolin]-2′-one] | 4.78 | – | – | –
